Read-outs that look alike come from different tables or passages of the source.
Key:
[1] = molecular target: T1, epidermal growth factor receptor tyrosine kinase (Homo sapiens, UniProt P00533); assay: EGF receptor tyrosine kinase assay (P^32 incorporation in GAT); type: biochemical; conditions: for IC50: Table 2, EGRF-R, IC50 entries, read-out: IC50 (EGFR TK); for inhibition at 100 µM: EGRF-R, read-out: % Inhibition at 100 μM (EGFR TK)
T1 construct: A native 170,000 epidermal growth factor receptor-kinase complex from shed plasma membrane vesicles; endogenous in cells
T1 sequence (P00533 25-1210): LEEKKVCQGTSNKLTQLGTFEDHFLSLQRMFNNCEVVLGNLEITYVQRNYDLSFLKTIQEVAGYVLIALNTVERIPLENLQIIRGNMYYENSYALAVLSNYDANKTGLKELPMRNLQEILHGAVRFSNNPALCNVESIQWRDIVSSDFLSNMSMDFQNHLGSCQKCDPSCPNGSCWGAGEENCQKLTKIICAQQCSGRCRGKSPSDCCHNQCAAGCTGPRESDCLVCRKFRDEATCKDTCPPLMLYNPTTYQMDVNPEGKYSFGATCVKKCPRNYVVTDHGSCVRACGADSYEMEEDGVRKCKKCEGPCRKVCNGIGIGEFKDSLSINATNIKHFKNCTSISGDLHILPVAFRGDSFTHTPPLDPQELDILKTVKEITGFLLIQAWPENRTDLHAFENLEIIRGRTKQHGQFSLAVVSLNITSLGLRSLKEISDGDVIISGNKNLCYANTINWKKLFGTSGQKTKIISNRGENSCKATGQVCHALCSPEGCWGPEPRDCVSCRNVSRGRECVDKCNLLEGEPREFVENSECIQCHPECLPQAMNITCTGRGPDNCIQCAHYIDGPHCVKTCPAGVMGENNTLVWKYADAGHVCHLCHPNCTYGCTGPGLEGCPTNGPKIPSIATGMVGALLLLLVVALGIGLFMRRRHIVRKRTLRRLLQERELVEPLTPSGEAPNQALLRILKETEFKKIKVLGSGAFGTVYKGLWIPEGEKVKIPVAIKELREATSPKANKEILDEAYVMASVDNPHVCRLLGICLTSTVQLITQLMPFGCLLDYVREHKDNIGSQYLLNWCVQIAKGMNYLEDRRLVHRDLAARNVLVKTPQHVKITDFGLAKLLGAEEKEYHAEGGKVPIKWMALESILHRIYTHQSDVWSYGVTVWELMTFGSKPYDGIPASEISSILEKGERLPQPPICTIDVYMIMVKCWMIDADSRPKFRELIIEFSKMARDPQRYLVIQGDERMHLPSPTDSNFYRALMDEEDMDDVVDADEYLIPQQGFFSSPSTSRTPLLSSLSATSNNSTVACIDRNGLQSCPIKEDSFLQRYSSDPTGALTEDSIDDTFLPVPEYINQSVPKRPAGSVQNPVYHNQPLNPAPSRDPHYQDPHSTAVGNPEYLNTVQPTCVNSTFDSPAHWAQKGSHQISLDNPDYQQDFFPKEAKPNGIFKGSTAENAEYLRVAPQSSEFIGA
T1 sequence (P01133 971-1023 partner limits assumed): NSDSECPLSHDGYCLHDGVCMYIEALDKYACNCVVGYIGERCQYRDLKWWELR
Summary of the method: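 Receptor pre-activated with 150 ng EGF for 10 min at room temperature. ATP with or without compound then added and incubated 10 min at room temperature.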

[2] = tested on: Swiss 3T3 mouse fibroblasts; assay: Growth inhibition assay, Swiss 3T3 fibroblasts; type: cell-based
Procedure: Swiss 3T3 mouse fibroblasts were maintained in dMEM/F12 media containing 10% fetal calf serum. […] The cells were grown at 37° C. under 5% CO2 for 72 hours and then counted by Coulter counter. The data were expressed as the concentration of inhibitor necessary to decrease the growth rate by 50%.

[3] = molecular target: T2, human PDGF β receptor intracellular tyrosine kinase domain (Homo sapiens, UniProt P09619); assay: PDGF receptor tyrosine kinase inhibition assay (P^32 incorporation in Glu-Tyr); type: biochemical; conditions: for inhibition at 100 µM: read-out: % Inhibition at 100 μM (PDGFR TK); for IC50: Table 2, PDGF-R, IC50 entries, read-out: IC50 (PDGFR TK)
T2 construct: human PDGF β receptor intracellular tyrosine kinase domain; made in house; host or cells: SF9 insect cells, recombinant baculovirus; cell lysates used
T2 sequence (P09619 554-1106 limits assumed): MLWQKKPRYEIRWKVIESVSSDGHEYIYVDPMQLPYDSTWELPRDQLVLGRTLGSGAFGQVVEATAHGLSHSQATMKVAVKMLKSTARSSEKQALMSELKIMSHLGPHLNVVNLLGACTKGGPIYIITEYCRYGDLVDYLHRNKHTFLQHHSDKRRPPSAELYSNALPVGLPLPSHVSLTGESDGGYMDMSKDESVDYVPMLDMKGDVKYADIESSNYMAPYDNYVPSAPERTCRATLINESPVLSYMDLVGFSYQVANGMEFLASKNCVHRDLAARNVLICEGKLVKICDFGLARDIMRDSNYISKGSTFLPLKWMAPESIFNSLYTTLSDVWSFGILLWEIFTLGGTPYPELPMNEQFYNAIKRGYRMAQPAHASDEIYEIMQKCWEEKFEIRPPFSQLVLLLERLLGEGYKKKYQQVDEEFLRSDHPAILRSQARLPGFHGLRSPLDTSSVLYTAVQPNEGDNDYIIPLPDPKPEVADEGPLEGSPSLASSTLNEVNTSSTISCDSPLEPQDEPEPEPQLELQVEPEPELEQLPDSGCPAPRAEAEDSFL
Procedure: Recombinant baculovirus containing human PDGF β receptor intracellular tyrosine kinase domain was used to infect SF9 cells to overexpress the protein, and cell lysates were used for the assay. The ability of the tyrosine kinase to phosphorylate glutamate tyrosine substrate in the presence of P^32 -ATP and inhibitor was measured by counting the incorporation of P^32 in Glu-Tyr in TCAprecipitable material.

A431 epidermoid = assay: Growth inhibition assay, A431; type: cell-based; conditions: Homo sapiens, A-431, read-out: IC50 cell growth inhibition
[4] = tested on: bFGF mediated tyrosine phosphorylation; assay: bFGF mediated tyrosine phosphorylation, Western blot; type: cell-based, mouse
Procedure: (§1) Swiss 3T3 fibroblasts, that were growth arrested in serum-free media for 24 hours, were exposed to various concentrations of compound for 2 hours. The cells were then exposed to individual growth factors for 5 minutes and proteins that were phosphorylated on tyrosine in response to the mitogens and were detected by Western blotting techniques using phosphotryosine antibodies. Similar techniques were used for tumor cell lines except the time in serum-free media was increased.

HT-29 colon = assay: Growth inhibition assay, HT-29; type: cell-based; conditions: Homo sapiens, read-out: IC50 cell growth inhibition
MDA 468 breast = assay: Growth inhibition assay, MDA 468; type: cell-based; conditions: Homo sapiens, read-out: IC50 cell growth inhibition
[5] = tested on: EGF mediated phosphorylation of a variety of endogenous proteins; assay: EGF mediated tyrosine phosphorylation, Western blot; type: cell-based, mouse; design: dose or concentration left out as unconfirmed; conditions: Swiss 3T3
Procedure: as §1

Swiss 3T3 fibroblasts = assay: Growth factor mediated mitogenesis (tritiated thymidine incorporation); type: cell-based; conditions: Mus musculus, Swiss-3T3, 24 h
Procedure: Swiss 3T3 fibroblasts, that were growth arrested in serum-free media for 24 hours, were exposed to various concentrations of compound for 2 hours. The cells were then exposed to individual growth factors for 24 hours and mitogenesis assessed by measuring tritiated thymidine incorporation into DNA.
The concentration of 21 and 70 required to inhibit growth factor mediated mitogenesis by 50% for the following growth factors was as follows: […]

[6] = tested on: PDGF mediated autophosphorylation of the PDGF receptor and tyrosine phosphorylation of other endogenous proteins; assay: PDGF mediated tyrosine phosphorylation, Western blot; type: cell-based, mouse; design: dose or concentration left out as unconfirmed; conditions: Swiss 3T3
Procedure: as §1

MDA-231 breast = assay: Growth inhibition assay, MDA-231; type: cell-based; conditions: Homo sapiens, MDA-MB-231, read-out: IC50 cell growth inhibition
A549 lung = assay: Growth inhibition assay, A549; type: cell-based; conditions: Homo sapiens, read-out: IC50 cell growth inhibition
MDV-7 breast = assay: Growth inhibition assay, MDV-7; type: cell-based; conditions: Homo sapiens, read-out: IC50 cell growth inhibition
[7] = tested on: human tumor cell lines as well as the Swiss 3T3 fibroblasts; assay: Growth inhibition of a variety of human tumor cell lines; type: cell-based, human; mouse
Procedure: Swiss 3T3 mouse fibroblasts were maintained in dMEM/F12 media containing 10% fetal calf serum. Two mL of cells at a density of 1×10^4/mL were placed in 24-well plates plus or minus various concentrations of the inhibitor. The cells were grown at 37° C. under 5% CO2 for 72 hours and then counted by Coulter counter. The data were expressed as the concentration of inhibitor necessary to decrease the growth rate by 50%.

[8] = tested on: human mammary carcinoma MCF-7 and some esophageal tumors; conditions: nude mice, dose-dependent; cited from earlier work
[9] = tested on: human epidermoid carcinoma A431 cells; conditions: J. Antibiot. 1986;39:170; cited from earlier work
[10] = Swiss 3T3, 72 hours, Table 2, read-out: IC50 growth inhibition
[11] = Swiss-3T3, 72 h, read-out: IC50 growth inhibition

Row | IC50 [1] [µM] | inhibition at 100 µM ([3]; at 100 μM, PDGF-R) [%] | Structure (SMILES) | IC50 [2, 10] [µM] | other results
1 | 1.5 | 9 | Cn1c(SSc2c(C(=O)NCc3ccccc3)c3ccccc3n2C)c(C(=O)NCc2ccccc2)c2ccccc21 [Compound 98, bis[N-benzyl 1-methylindolyl-3-carboxamide-(2)]disulfide] | 5 to 12 | –
2 | – | 19 | Cc1ccc2c(c1)c(C(=O)Nc1ccccc1)c(SSc1c(C(=O)Nc3ccccc3)c3cc(C)ccc3n1C)n2C [Compound 76, bis [N-phenyl 1,5-dimethylindolyl-3-carboxamide-(2)] disulfide] | 22 | inhibition at 100 µM [1]: 7%
3 | – | 3 | Cc1cccc2c1c(C(=O)Nc1ccccc1)c(SSc1c(C(=O)Nc3ccccc3)c3c(C)cccc3n1C)n2C [Compound 75, bis[N-phenyl 1,4-dimethylindolyl-3-carboxamide-(2)]disulfide] | 4 | inhibition at 100 µM [1]: 6%
4 | 8.6 | 1 | Cn1c(SSc2c(C(=O)Nc3ccccc3)c3ccccc3n2C)c(C(=O)Nc2ccccc2)c2ccccc21 [Compound 70, bis [N-phenyl 1-methylindolyl-3-carboxamide-(2)] disulfide] | 12 | inhibition of bFGF mediated tyrosine phosphorylation (selectivity over EGF and PDGF) ([4]; Swiss 3T3, as low as 2 mM): more selective and inhibited only bFGF mediated tyrosine phosphorylation; IC50 (Swiss 3T3 fibroblasts; EGF): 3 µM; IC50 (Swiss 3T3 fibroblasts; PDGF): 4 µM; IC50 (Swiss 3T3 fibroblasts; bFGF): 3 µM; IC50 (Swiss 3T3 fibroblasts; serum): 3 µM
5 | – | 20 | COc1cccc2c1c(C(=O)Nc1ccccc1)c(SSc1c(C(=O)Nc3ccccc3)c3c(OC)cccc3n1C)n2C [Compound 79, bis [N-phenyl 4-methoxy-1-methyl indolyl-3-carboxamide-(2)]disulfide] | 1.9 | inhibition at 100 µM [1]: 11%
6 | 10.1 | – | CNC(=O)c1c(SSc2c(C(=O)NC)c3ccccc3n2C)n(C)c2ccccc12 [Compound 97, bis[N-methyl 1-methylindolyl-3-carboxamide-(2)]disulfide] | 1.8 | IC50 [3]: 28.1 µM
7 | 4.3 | 21 | Cn1c(SSc2c(C(=O)Nc3ccccc3)c3cc(Cl)ccc3n2C)c(C(=O)Nc2ccccc2)c2cc(Cl)ccc21 [Compound 73, bis[N-phenyl 5-chloro-1-methylindolyl-3-carboxamide-(2)]disulfide] | 9.3 | –
8 | 26 | – | CN(C)CCNC(=O)c1c(SSc2c(C(=O)NCCN(C)C)c3ccccc3n2C)n(C)c2ccccc12 [Compound 115, 2,2'-dithiobis [N-(N,N-dimethylaminoethyl) 1-methylindolyl-3-carboxamide]] | > 50 | IC50 [3]: 19.7 µM
9 | 6.5 | – | COc1cccc2c(C(=O)Nc3ccccc3)c(SSc3c(C(=O)Nc4ccccc4)c4cccc(OC)c4n3C)n(C)c12 [Compound 82, bis[N-phenyl 7-methoxy-1-methylindolyl-3-carboxamide-(2)]disulfide] | 24 | –
10 | 3.6 | 2 | COc1ccc2c(C(=O)Nc3ccccc3)c(SSc3c(C(=O)Nc4ccccc4)c4ccc(OC)cc4n3C)n(C)c2c1 [Compound 81, bis[N-phenyl 6-methoxy-1-methylindolyl-3-carboxamide-(2)]disulfide] | 17 | –
11 | 22.3 | 57 | Cn1c(SSc2c(C(=O)Nc3ccccc3)c3cccnc3n2C)c(C(=O)Nc2ccccc2)c2cccnc21 [Compound 83, 2,2'-dithiobis [N-phenyl-1-methyl-7-azaindolyl-3-carboxamide]] | 10 | –

The next lines start with the compound.

Row | Structure (SMILES) | IC50 [1] [µM] | inhibition at 100 µM ([3]; at 100 μM, PDGF-R) [%] | IC50 [2, 10] [µM] | other results
12 | CN1C(=S)C(C(=O)Nc2ccccc2)c2ccccc21 (stereo not shown) [Compound 21, N-phenyl (1-methyl-2-thioxo-3-indolinyl)carboxamide] | 1 | – | 64 | IC50 (A431 epidermoid): 62 µM; suppression of bFGF mediated tyrosine phosphorylation ([4]; Swiss 3T3, 10 to 50 mM): suppressed; IC50 (HT-29 colon): 55 µM; IC50 (MDA 468 breast): 43 µM; IC50 ([2]; Swiss 3T3 fibroblasts, cell line table, read-out: IC50 cell growth inhibition): 64 µM; suppression of EGF mediated phosphorylation of a variety of endogenous proteins [5]: suppressed; IC50 (Swiss 3T3 fibroblasts; EGF): 2 µM; IC50 (Swiss 3T3 fibroblasts; PDGF): 8 µM; IC50 (Swiss 3T3 fibroblasts; bFGF): 13 µM; IC50 (Swiss 3T3 fibroblasts; serum): 19 µM; suppression of PDGF mediated autophosphorylation of the PDGF receptor and tyrosine phosphorylation of other endogenous proteins [6]: suppressed; IC50 (MDA-231 breast): 15 µM; IC50 (A549 lung): 30 µM; IC50 (MDV-7 breast): 39 µM; growth inhibition in words [7]: growth inhibitory
13 | CCOC(=O)Cc1c(SSc2c(CC(=O)OCC)c3ccccc3n2C)n(C)c2ccccc12 [Compound 33, bis[ethyl 1-methylindolyl-3-acetate-(2)]disulfide] | 39 | 16.7 | – | IC50 [2, 11]: 3 µM
14 | CCn1c(SSc2c(C(=O)Nc3ccccc3)c3ccccc3n2CC)c(C(=O)Nc2ccccc2)c2ccccc21 [Compound 71, bis[N-phenyl 1-ethylindolyl-3-carboxamide-(2)]disulfide] | – | – | – | inhibition at 100 µM [1]: 20%; IC50 [2, 11]: 52 µM; inhibition at 100 µM [3]: 5%
15 | Cc1ccc(S(=O)(=O)c2c(SSc3[nH]c4ccccc4c3S(=O)(=O)c3ccc(C)cc3)[nH]c3ccccc23)cc1 [Compound 99, bis[3-(4-methylphenylsulfonyl)-2-indolyl]disulfide] | 40 | 19 | – | IC50 [2, 11]: 2.8 µM
16 | Cn1c(SSc2c(CC(=O)O)c3ccccc3n2C)c(CC(=O)O)c2ccccc21 [Compound 32, bis[1-methylindolyl-3-acetic acid-(2)]-disulfide] | 34.5 | 4.7 | 36 | –
17 | O=CN/C=C/c1cc(O)ccc1O [erbstatin] | – | – | – | tumor growth inhibition [8]: inhibits the growth; IC50 growth of A431 cells [9]: 3.6 µg/mL
18 | CCOC(=O)CCc1c(SSc2[nH]c3ccccc3c2CCC(=O)OCC)[nH]c2ccccc12 [Compound 38, bis[ethylindolyl-3-propanoate-(2)] disulfide] | – | – | 1.6 | inhibition at 100 µM [1]: 36.5%
19 | CCOC(=O)CCc1c(SSc2[nH]c3cc(C)ccc3c2CCC(=O)OCC)[nH]c2cc(C)ccc12 [Compound 44, bis[ethyl 6-methylindolyl-3-propanoate-(2)] disulfide] | – | 5 | 2.4 | inhibition at 100 µM [1]: 16.6%
20 | O=C(Cc1c(SSc2[nH]c3ccccc3c2CC(=O)NCc2ccccc2)[nH]c2ccccc12)NCc1ccccc1 [Compound 34, 2,2'-dithiobis[N-benzyl 2-(3-indolyl)acetamide]] | 38 | 12.8 | 2.7 | –
21 | Cc1c(SSc2c(C)c3ccccc3n2C)n(C)c2ccccc12 [Compound 103] | – | – | – | inhibition at 100 µM [1]: 7%; IC50 [2, 11]: 3.8 µM
22 | NC(Cc1c(SSc2[nH]c3ccccc3c2CC(N)C(=O)NCc2ccccc2)[nH]c2ccccc12)C(=O)NCc1ccccc1 (racemic) [Compound 62, 2,2'-dithiobis[α-amino-N-benzyl-3-(3-indolyl)propanamide]] | 6 | 71 | – | IC50 [2, 11]: 5.3 µM
23 | Cc1ccc2[nH]c(SSc3[nH]c4ccc(C)cc4c3CCC(=O)O)c(CCC(=O)O)c2c1 [Compound 41, bis[5-methylindolyl-3-propanoic acid-(2)]disulfide] | 8.4 | – | > 25 | –
24 | O=C(CCc1c(SSc2[nH]c3ccccc3c2CCC(=O)NCc2ccccc2)[nH]c2ccccc12)NCc1ccccc1 [Compound 47] | 0.85 | – | 6 | –

— US5464861A, “2-thioindoles (selenoindoles) and related disulfides (selenides) which inhibit protein tyrosine kinases and which have antitumor properties” (Warner-Lambert, priority 1993, dated 1995)
